# Results as given in US20240327421A1 (Marquette University, priority 2017, published 2024).
# “And” between values parts separate entries of the source, which are not always exact repeats. Equal values may be shown once. “Also recorded” adds a separate entry of the source.
# Assays:
# [1] = target: T1, ERα LBD fused to GAL4 DBD (Homo sapiens, UniProt P03372); assay: GeneBLAzer cell-based transcriptional activation, chimeric ERα; details: agonist mode
# T1 sequence (P03372 311-547 limits assumed): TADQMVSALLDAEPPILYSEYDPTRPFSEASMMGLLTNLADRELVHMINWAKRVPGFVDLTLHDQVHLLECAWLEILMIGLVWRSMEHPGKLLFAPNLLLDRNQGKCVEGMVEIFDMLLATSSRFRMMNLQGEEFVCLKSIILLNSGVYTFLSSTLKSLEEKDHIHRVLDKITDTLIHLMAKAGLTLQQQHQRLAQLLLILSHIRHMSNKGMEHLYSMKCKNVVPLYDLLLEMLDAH
# Vitamin D Receptor (VDR) = target: T2, Vitamin D Receptor (VDR) (Homo sapiens, UniProt P11473); assay: GeneBLAzer nuclear hormone receptor specificity assay, VDR; type: cell-based; details: 0.25 to 25 μM; listed as ISP358-2
# T2 sequence (P11473 127-423 limits assumed): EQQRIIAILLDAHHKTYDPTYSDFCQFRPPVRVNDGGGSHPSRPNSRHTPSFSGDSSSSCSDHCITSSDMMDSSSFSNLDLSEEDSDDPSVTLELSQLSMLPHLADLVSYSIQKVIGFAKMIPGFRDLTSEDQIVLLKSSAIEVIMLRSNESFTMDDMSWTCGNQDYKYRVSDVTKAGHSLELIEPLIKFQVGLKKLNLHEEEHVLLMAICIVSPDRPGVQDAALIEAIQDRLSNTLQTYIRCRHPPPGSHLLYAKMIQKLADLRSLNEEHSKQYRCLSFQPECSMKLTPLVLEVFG
# ERα = target: T3, ERα (Homo sapiens, UniProt P03372); assay: Cell-based luciferase reporter assay, full length ERα, agonist mode; details: full length ERα, 22 h, read-out: ERα agon. IC50
# T3 construct: employs a full length and native ER (comprised of an ER LBD and an ER DBD)
# T3 sequence (P03372 1-595): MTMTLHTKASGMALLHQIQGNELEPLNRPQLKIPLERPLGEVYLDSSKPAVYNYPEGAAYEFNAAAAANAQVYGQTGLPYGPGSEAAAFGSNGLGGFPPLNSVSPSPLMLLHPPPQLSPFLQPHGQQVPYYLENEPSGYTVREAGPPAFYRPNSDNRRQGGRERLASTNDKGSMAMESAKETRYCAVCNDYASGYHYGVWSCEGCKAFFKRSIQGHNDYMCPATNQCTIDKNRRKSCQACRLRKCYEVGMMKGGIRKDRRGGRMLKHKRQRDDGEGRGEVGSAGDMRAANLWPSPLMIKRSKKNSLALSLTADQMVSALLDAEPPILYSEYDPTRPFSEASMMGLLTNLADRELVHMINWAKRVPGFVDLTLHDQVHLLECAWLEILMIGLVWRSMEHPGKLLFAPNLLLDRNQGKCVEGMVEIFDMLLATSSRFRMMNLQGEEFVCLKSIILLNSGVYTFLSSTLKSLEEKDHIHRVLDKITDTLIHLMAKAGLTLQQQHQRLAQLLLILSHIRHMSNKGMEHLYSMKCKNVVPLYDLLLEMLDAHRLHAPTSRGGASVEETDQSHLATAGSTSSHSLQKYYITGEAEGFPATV
# CYP1A2 = target: T4, CYP1A2 (Homo sapiens, UniProt P05177); assay: P450-Glo CYP450 inhibition, CYP1A2; type: in vitro ADME; details: highest concentration 62.6 μM; listed as ISP358-2
# T4 construct: purchased Promega Corporation (Madison, WI)
# T4 sequence (P05177 1-516): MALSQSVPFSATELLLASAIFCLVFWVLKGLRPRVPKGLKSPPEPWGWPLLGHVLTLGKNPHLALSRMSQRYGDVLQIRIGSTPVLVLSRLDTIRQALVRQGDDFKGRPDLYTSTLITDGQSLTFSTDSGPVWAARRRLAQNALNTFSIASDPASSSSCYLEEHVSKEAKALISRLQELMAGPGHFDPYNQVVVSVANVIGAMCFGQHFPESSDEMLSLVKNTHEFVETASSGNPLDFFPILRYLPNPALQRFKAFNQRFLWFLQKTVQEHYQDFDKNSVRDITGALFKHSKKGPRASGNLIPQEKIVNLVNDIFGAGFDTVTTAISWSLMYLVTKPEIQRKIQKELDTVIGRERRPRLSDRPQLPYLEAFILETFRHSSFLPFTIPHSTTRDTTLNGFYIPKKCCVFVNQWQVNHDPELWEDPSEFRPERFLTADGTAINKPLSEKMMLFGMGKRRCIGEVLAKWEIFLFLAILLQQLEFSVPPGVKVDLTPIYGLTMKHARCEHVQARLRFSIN
# Protocol: (§1) In Vitro Druggability Assays-CYP450 Binding, hERG & Nephelometry. The P450-Glo™ Screening System from Promega Corporation (Madison, WI) was used to measure CYP450 (cytochrome P450) inhibition, as described in the kit instructions. Assays were run in 96-well white plates (Corning® 3912), and luminescence was measured on a SpectraMax M5 instrument (FIG. 6). The luminescence signal is proportional to the amount of luciferin product formed by the CYP reaction. Compounds were prepared in DMSO, then an eight-step 1:2 dilution series was made in DMSO. […] After adding the relevant Cytochrome P450 enzyme, the plate was incubated at 37° C. for 10 minutes to allow components to come to temperature. Next, the NADPH regeneration system was added to activate the reaction on a luminogenic P450-GloTM substrate, and incubated at 37° C. for 10-30 min, according to kit instructions for each CYP enzyme. The enzyme reaction was stopped by the addition of Luciferin Detection Reagent and luminescence of the plate was read in a Spectramax M5 (Molecular Devices) after a 20 min incubation at room temperature. Data were normalized to positive controls (α-naphthoflavone for CYP1A2, sulfaphenazole for CYP2C9, quinidine for CYP2D6, and ketoconazole for CYP3A4). Data analysis was with Prism software, as described above.
# CYP2C9 = target: T5, CYP2C9 (Homo sapiens, UniProt P11712); assay: P450-Glo CYP450 inhibition, CYP2C9; type: in vitro ADME; details: highest concentration 62.6 μM
# T5 construct: purchased Promega Corporation (Madison, WI)
# Protocol: as §1
# CYP2D6 = target: T6, CYP2D6 (Homo sapiens, UniProt P10635); assay: P450-Glo CYP450 inhibition, CYP2D6; type: in vitro ADME; details: highest concentration 62.6 μM; listed as ISP358-2
# T6 construct: purchased Promega Corporation (Madison, WI)
# Protocol: as §1
# ovariectomized mice = assay: Object placement (spatial memory consolidation) test; details: for object placement: spatial memory consolidation after long-term ovariectomy: oral gavage 4 months after ovariectomy, same doses (0.5 or 5 mg/kg ISP358-2, 0.05 mg/kg DPN), preliminary
# T5 sequence (P11712 whole entry): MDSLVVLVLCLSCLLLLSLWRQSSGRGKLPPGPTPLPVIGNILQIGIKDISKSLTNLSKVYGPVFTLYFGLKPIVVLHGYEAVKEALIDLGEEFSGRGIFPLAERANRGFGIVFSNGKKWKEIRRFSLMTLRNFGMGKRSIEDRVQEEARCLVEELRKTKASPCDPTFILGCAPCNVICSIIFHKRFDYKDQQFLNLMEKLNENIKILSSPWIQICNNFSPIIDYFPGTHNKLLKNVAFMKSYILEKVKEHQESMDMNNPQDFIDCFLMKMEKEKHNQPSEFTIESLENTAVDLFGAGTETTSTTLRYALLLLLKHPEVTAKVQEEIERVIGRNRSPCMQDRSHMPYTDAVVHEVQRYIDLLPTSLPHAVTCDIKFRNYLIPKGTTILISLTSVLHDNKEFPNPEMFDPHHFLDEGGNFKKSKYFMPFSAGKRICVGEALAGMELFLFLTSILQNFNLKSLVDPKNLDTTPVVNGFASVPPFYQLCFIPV
# T6 sequence (P10635 whole entry): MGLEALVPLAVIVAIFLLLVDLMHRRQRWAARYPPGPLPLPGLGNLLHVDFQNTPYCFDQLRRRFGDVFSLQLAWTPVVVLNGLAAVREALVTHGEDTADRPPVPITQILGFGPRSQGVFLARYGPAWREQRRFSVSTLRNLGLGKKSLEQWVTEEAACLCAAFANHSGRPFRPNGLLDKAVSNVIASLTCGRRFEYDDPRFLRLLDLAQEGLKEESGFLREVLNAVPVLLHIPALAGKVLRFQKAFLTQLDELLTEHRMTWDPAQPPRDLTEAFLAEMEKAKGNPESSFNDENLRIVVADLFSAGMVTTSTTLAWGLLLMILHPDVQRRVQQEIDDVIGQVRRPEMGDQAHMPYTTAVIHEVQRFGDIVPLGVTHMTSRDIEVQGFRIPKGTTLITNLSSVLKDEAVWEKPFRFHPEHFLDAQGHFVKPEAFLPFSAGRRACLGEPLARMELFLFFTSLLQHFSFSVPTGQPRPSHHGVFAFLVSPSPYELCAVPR
compound,measurement,setting,value
OC[C@H]1CC[C@H](c2ccc(O)cc2)CC1 [Compound 16],IC50,[1],0.93 ± 0.069 µM
same,"agonist activity, VDR",Vitamin D Receptor (VDR),not an agonist; also recorded: no significant off-target activity
same,IC50,ERα,20.4 µM and 18.6 µM
same,CYP1A2 inhibition,CYP1A2,no significant inhibition
same,CYP2C9 inhibition,CYP2C9,no significant inhibition
same,IC50,CYP2C9,34 ± 4.7 µM
same,CYP2D6 inhibition,CYP2D6,no significant inhibition
same,object placement: time with moved object / memory consolidation,"ovariectomized mice; IP injection, 0.5 mg/kg, listed as ISP358-2, 0.5 mg/kg",spent significantly more time than chance with the moved object; also recorded: most effectively enhanced consolidation; also recorded: enhanced memory consolidation
same,object placement: time with moved object / memory consolidation,"ovariectomized mice; IP injection, 5 mg/kg, listed as ISP358-2, 5 mg/kg",spent significantly more time than chance with the moved object; also recorded: also enhanced OP memory consolidation
same,object placement: time with moved object / memory consolidation,"ovariectomized mice; dorsal hippocampal infusion, 10 pg/hemisphere, tested 24 h after training, chance 15 s",did not spend significantly more time than chance with the moved object
same,object placement: time with moved object / memory consolidation,"ovariectomized mice; dorsal hippocampal infusion, 100 pg/hemisphere, tested 24 h after training, listed as ISP358-2",spent significantly more time than chance with the moved object; also recorded: enhanced memory consolidation; also recorded: significantly increased time was spent
same,object placement: time with moved object / memory consolidation,"ovariectomized mice; dorsal hippocampal infusion, 1 ng/hemisphere, tested 24 h after training, listed as ISP358-2",spent significantly more time than chance with the moved object; also recorded: enhanced memory consolidation; also recorded: significantly increased time was spent
same,object placement: spatial memory consolidation after long-term ovariectomy,ovariectomized mice,did not enhance spatial memory consolidation
same,object placement: spatial memory consolidation after long-term ovariectomy,ovariectomized mice; listed as ISP358-2,neither DPN nor ISP358-2 affected memory
same,object placement: time with moved object / memory consolidation,"ovariectomized mice; oral gavage, 0.5 mg/kg, within 1 month of ovariectomy, listed as ISP358-2, 0.5 mg/kg",exhibited a significant preference for the moved object relative to chance; also recorded: enhanced memory consolidation
same,object placement: time with moved object / memory consolidation,"ovariectomized mice; oral gavage, 5 mg/kg, within 1 month of ovariectomy, listed as ISP358-2, 5 mg/kg",exhibited a significant preference for the moved object relative to chance; also recorded: most effective; also recorded: enhanced memory consolidation
